This is an account of results in PMC8762706, “Design of Coibamide A Mimetics with Improved Cellular Bioactivity” (ACS Medicinal Chemistry Letters, 2021).

The data set deals with A549 cells. The data set is described as follows: Growth inhibition assay (MTS) in A549 cells. Type of data set: cell-based. Here is the method:
Growth Inhibition AssayS3
A549 cells were cultured in Dulbecco’s modified Eagle’s medium (DMEM; Sigma) supplemented with 10% (v/v) fetal bovine serum at 37 °C in a 5% CO2-incubator. Growth inhibition assays using A549 cells were performed in 96-well plates (BD Falcon). A549 cells were seeded at 1000 cells/well in 90 μL of culture media, respectively, and were cultured for 24 h. Chemical compounds in DMSO were diluted 50-fold with the culture medium in advance. 30 μL of the chemical diluents were added.
The final volume of DMSO in the medium was equal to 0.5% (v/v). The cells under chemical treatment were incubated for a further 72 h. The wells in the plates were washed twice with the cultured medium without phenol-red. After 1-hour incubation with 100 μL of the medium, the cell culture in each well was supplemented with 20 μL of the MTS reagent (Promega), followed by incubation for additional 40 min. Absorbance at 490 nm of each well was measured using a Wallac 1420 ARVO SX multilabel counter (Perkin Elmer). Three experiments were performed per condition and the averages of inhibition rates in each condition were evaluated to determine IC50 values using the GraphPad Prism software.

Where [1] appears, read: read-out: IC50 (concentration for 50% growth inhibition of A549 cells), MTS assay, 72 h treatment, 0.5% DMSO, absorbance 490 nm, n = 3.

Read-outs that look alike come from different tables or passages of the source. Where a SMILES comes first, the peptide text is derived from it. Bridges are numbered along the chain shown (N, C = ends). [ ]: non-standard residue; d: D form. The star is where a group is joined. Bip = N[C@@H](Cc1ccc(-c2ccccc2)cc1)C(=O)O; dNMeaIle = CC[C@H](C)[C@@H](NC)C(=O)O; NMe2Val = CC(C)[C@@H](C(=O)*)N(C)C; NMeLys(Me) = CNCCCC[C@H](NC)C(=O)O; NMeI = CC[C@H](C)[C@H](NC)C(=O)O; NMeT = CN[C@H](C(=O)O)[C@@H](C)O; Tic = O=C(O)[C@@H]1Cc2ccccc2CN1; Lys(Me) = CNCCCC[C@H](N)C(=O)O; NMeL = CN[C@@H](CC(C)C)C(=O)O; dNMeOrn = CN[C@H](CCCN)C(=O)O; dNMeK = CN[C@H](CCCCN)C(=O)O; dHiv = CC(C)[C@@H](O)C(=O)O; NMeA = CN[C@@H](C)C(=O)O; dNMeA = CN[C@H](C)C(=O)O; CF3 = FC(F)(F)*; tBu = CC(C)(C)*

As for `CC[C@H](C)[C@@H]1C(=O)N[C@@H](C)C(=O)N(C)[C@@H](CC(C)C)C(=O)N[C@@H](Cc2ccc(OC)cc2)C(=O)N(C)CCCC[C@H](N(C)C(=O)[C@H](CC(C)C)N(C)C(=O)[C@H](C)N(C)C(=O)[C@H](OC(=O)[C@H](C(C)C)N(C)C)C(C)C)C(=O)N(C)[C@@H](C)C(=O)N1C` [9b] (NMe2Val-[dHiv][NMeA][NMeL][NMeLys(Me)][NMeA][dNMeaIle]A[NMeL]Y(Me); lactam 4-C), under setting [1], the IC50 is more than 10 µM.
Still for that read-out and setting: under `CC[C@H](C)[C@H]1C(=O)N[C@@H](C)C(=O)N(C)[C@@H](CC(C)C)C(=O)N[C@@H](Cc2ccc(OC(C)(C)C)cc2)C(=O)N(C)CCCC[C@H](N(C)C(=O)[C@H](CC(C)C)N(C)C(=O)[C@H](C)N(C)C(=O)[C@H](OC(=O)[C@H](C(C)C)N(C)C)C(C)C)C(=O)N(C)[C@@H](C)C(=O)N1C` [10h] (NMe2Val-[dHiv][NMeA][NMeL][NMeLys(Me)][NMeA][NMeI]A[NMeL]Y(tBu); lactam 4-C) stands 1 ± 0.1 µM; under `CC[C@H](C)[C@H]1C(=O)N[C@@H](C)C(=O)N(C)[C@@H](CC(C)C)C(=O)N[C@@H](Cc2ccc(OC)cc2)C(=O)N(C)CCC[C@@H](N(C)C(=O)[C@H](CC(C)C)N(C)C(=O)[C@H](C)N(C)C(=O)[C@H](OC(=O)[C@H](C(C)C)N(C)C)C(C)C)C(=O)N(C)[C@@H](C)C(=O)N1C` [2d], more than 10 µM; under `CC[C@H](C)[C@H]1C(=O)N[C@@H](C)C(=O)N(C)[C@@H](CC(C)C)C(=O)N[C@@H](Cc2ccc(OC)cc2)C(=O)NCCC[C@@H](N(C)C(=O)[C@H](CC(C)C)N(C)C(=O)[C@H](C)N(C)C(=O)[C@H](OC(=O)[C@H](C(C)C)N(C)C)C(C)C)C(=O)N(C)[C@@H](C)C(=O)N1C` [2h] (NMe2Val-[dHiv][NMeA][NMeL][dNMeOrn][NMeA][NMeI]A[NMeL]Y(Me); lactam 4-C), more than 10 µM.
On the same count and under the same terms, under `CC[C@H](C)[C@H]1C(=O)N[C@@H](C)C(=O)N(C)[C@@H](CC(C)C)C(=O)N[C@@H](Cc2ccc(OC)cc2)C(=O)N(C)CCCC[C@H](NC(=O)[C@H](CC(C)C)N(C)C(=O)[C@H](C)N(C)C(=O)[C@H](OC(=O)[C@H](C(C)C)N(C)C)C(C)C)C(=O)N(C)[C@@H](C)C(=O)N1C` [8c] (NMe2Val-[dHiv][NMeA][NMeL][Lys(Me)][NMeA][NMeI]A[NMeL]Y(Me); lactam 4-C) stands 6.4 ± 1.7 µM; under `CC[C@H](C)[C@H]1C(=O)N[C@@H](C)C(=O)N(C)[C@@H](CC(C)C)C(=O)N[C@@H](Cc2ccc(OC)cc2)C(=O)NCCCC[C@@H](N(C)C(=O)[C@H](CC(C)C)N(C)C(=O)[C@H](C)N(C)C(=O)[C@H](OC(=O)[C@H](C(C)C)N(C)C)C(C)C)C(=O)N(C)[C@@H](C)C(=O)N1C` [2f] (NMe2Val-[dHiv][NMeA][NMeL][dNMeK][NMeA][NMeI]A[NMeL]Y(Me); lactam 4-C), more than 10 µM; under `CC[C@H](C)[C@H]1C(=O)N[C@@H](C)C(=O)N(C)[C@@H](CC(C)C)C(=O)N[C@@H](Cc2ccc(OC(F)(F)F)cc2)C(=O)N(C)CCCC[C@H](N(C)C(=O)[C@H](CC(C)C)N(C)C(=O)[C@H](C)N(C)C(=O)[C@H](OC(=O)[C@H](C(C)C)N(C)C)C(C)C)C(=O)N(C)[C@@H](C)C(=O)N1C` [10i] (NMe2Val-[dHiv][NMeA][NMeL][NMeLys(Me)][NMeA][NMeI]A[NMeL]Y(CF3); lactam 4-C), 0.32 ± 0.03 µM.
`CC[C@H](C)[C@H]1C(=O)N[C@@H](C)C(=O)N(C)[C@@H](CC(C)C)C(=O)N[C@@H](Cc2ccc(-c3ccccc3)cc2)C(=O)N(C)[C@H](C)C(=O)O[C@H](C)[C@H](N(C)C(=O)[C@H](CC(C)C)N(C)C(=O)[C@H](C)N(C)C(=O)[C@H](OC(=O)[C@H](C(C)C)N(C)C)C(C)C)C(=O)N(C)[C@@H](C)C(=O)N1C` [compound 12, [MeAla^3, MeAla^6, Bph^10]-CbA] (NMe2Val-[dHiv][NMeA][NMeL][NMeT][NMeA][NMeI]A[NMeL][Bip][dNMeA]; ester 4-C): the “fold more potent cytotoxicity than 1 (coibamide A)” value (ratio of IC50 values to 1) is reported as 5.6 fold. In addition, the IC50 (read-out: IC50 (concentration for 50% growth inhibition of A549 cells), MTS assay, 72 h treatment, n = 3) was 0.00025 µM.
`CC[C@H](C)[C@H]1C(=O)N[C@@H](C)C(=O)N(C)[C@@H](CC(C)C)C(=O)N[C@@H](Cc2ccc(OC)cc2)C(=O)N(C)CCCC[C@H](N(C)C(=O)[C@H](CC(C)C)N(C)C(=O)[C@H](C)N(C)C(=O)[C@H](OC(=O)[C@H](C(C)C)N(C)C)C(C)C)C(=O)N(C)[C@H](C)C(=O)N1C` [9a] (NMe2Val-[dHiv][NMeA][NMeL][NMeLys(Me)][dNMeA][NMeI]A[NMeL]Y(Me); lactam 4-C): the IC50 under setting [1] is more than 10 µM.
Consider `CC[C@H](C)[C@H]1C(=O)N[C@@H](C)C(=O)N(C)[C@@H](CC(C)C)C(=O)N2Cc3ccccc3C[C@H]2C(=O)N(C)CCCC[C@H](N(C)C(=O)[C@H](CC(C)C)N(C)C(=O)[C@H](C)N(C)C(=O)[C@H](OC(=O)[C@H](C(C)C)N(C)C)C(C)C)C(=O)N(C)[C@@H](C)C(=O)N1C` [10o] (NMe2Val-[dHiv][NMeA][NMeL][NMeLys(Me)][NMeA][NMeI]A[NMeL][Tic]; lactam 4-C), for which the “cytotoxicity / bioactivity in words” value (MTS assay) is “loss of bioactivity”. In addition, the IC50 under setting [1] was more than 10 µM.
With `CC[C@H](C)[C@H]1C(=O)N[C@@H](C)C(=O)N(C)[C@@H](CC(C)C)C(=O)N[C@@H](Cc2ccc(OC)cc2)C(=O)N(C)CCCC[C@H](N(C)C(=O)[C@H](CC(C)C)N(C)C(=O)[C@H](C)NC(=O)[C@H](OC(=O)[C@H](C(C)C)N(C)C)C(C)C)C(=O)N(C)[C@@H](C)C(=O)N1C` [8a] (NMe2Val-[dHiv]A[NMeL][NMeLys(Me)][NMeA][NMeI]A[NMeL]Y(Me); lactam 4-C), the IC50 under setting [1] came to 2.2 ± 0.6 µM.
